Laboratory results taken from patent US11358940B2, “K-Ras modulators” (THE REGENTS OF THE UNIVERSITY OF CALIFORNIA, priority 2017, dated 2022).

Tests used:
[1] = target: T1, GDP loaded KRAS4b(1-169) H95C/C118S mutant (Homo sapiens, UniProt P01116, C118S/H95C); assay: MALDI-TOF percentage labeling of C95, GDP-loaded protein; type: binding; conditions: for level of covalent labeling to C95 (percent of labeling), GDP, 3 h: 3 h incubation; for level of covalent labeling to C95 (percent of labeling), GDP, 6 h: 6 h incubation; for level of covalent labeling to C95 (percent of labeling), GDP, 24 h: 24 h incubation
T1 construct: loaded KRAS4b(1-169) H95C/C118S mutant
Description: (§1) Table 1 is a table summarizing levels of covalent labeling to C95 as analyzed by MALDI-TOF MS for a series of synthesized compounds. […] Both species, GDP or nonhydrolyzable analogue of GTP—GppNHp-loaded KRAS4b H95C/C118S, were then reacted with a panel of epoxides and analyzed by MALDI-TOF MS to assess level of covalent modification to C95 after 3 h, 6 h, or 24 h of incubation with the protein. All R isomers show enhanced activity compared to S isomers.
(§2) Example 18: Percentage Labeling Determination for Compounds Targeting KRAS4b Residue 95 by Matrix Assisted Laser Desorption Ionization-Time of Flight Mass Spectrometry (MALDI-TOF)
(§3) The assay uses four tool proteins: • Guanosine diphosphate (GDP) loaded KRAS4b(1-169) H95C/C118S mutant • 5′-Guanylyl imidodiphosphate (GppNHp) loaded KRAS4b(1-169) H95C/C118S mutant • GDP loaded KRAS4b(1-169) C118S mutant • GppNHp loaded KRAS4b(1-169) C118S mutant
(§4) 20 μM Solution of protein in 20 mM HEPES, 150 mM NaCl, 1 mM MgCl2, pH 7.3 buffer was prepared freshly before assay. 20 μl Aliquots of protein were dispensed on 384 well polypropylene plate, then tested compounds (0.8 μl, 10 mM in DMSO) were added to appropriate wells. For each reaction/assay three blank and three control samples were prepared by mixing 20 μl of protein solution with 0.8 μl DMSO or 10 mM standards (compounds 994566 and FB9). The wells content was carefully mixed by aspiration, then plate was sealed by adhesive cover, centrifuged at 2000 g for 1 minute and kept in dark at room temperature for 3, 6 (or 8) and 24 h.
(§5) Before each assay MALDI target (Bruker MPT 384 ground steel BC) was pre-treated by pipetting on each spot 1 μl of saturated sinapinic acid in acetonitrile (ACN).
(§6) After 24 h reaction, 2 μl of reaction mixtures were pipetted out into 20 μl MALDI matrix solution (saturated solution of sinapinic acid in 1:1 ACN:water solution containing 0.75% trifluoroacetic acid (TFA)) deposited on 384 well polypropylene plate. Resulting solution was mixed by aspiration, centrifuged at 2000 g for 1 minute, then 2 μl aliquots were dispensed on pre-treated MALDI target using Beckman Coulter Biomek FX^P 96/Span-8 Laboratory Automation Workstation. Finally, the MALDI target was dried under mild vacuum to produce spots with fine crystalline structure.
MALDI-TOF measurements were performed on Bruker Daltonics ultraflex III TOF-TOF mass spectrometer using linear mode and mass range from 5 to 45 kDa. Detector gain was set to ×9 (1734 V), sample rate to 1 GS/s, smart beam parameter set: 3_medium was used, and the laser frequency was 66.7 Hz. Spectra were automatically collected using custom AutoXecute method. Laser power was auto-adjusted using fuzzy control. The peak selection range was set to be between 19000 and 20200 Da. Peak evaluation uses half width parameter set to be smaller than 30 Da. Fuzzy control used Proteins/Oligonucleotides protocol with minimum half width ⅙ times above threshold. Up to 1500 shots were collected in 500 shot steps. Dynamic termination was implemented to finish data collection when peak intensity was reaching value of 1200 [a.u.].
Spectra were smoothed by SavitzkyGolay algorithm using 5 m/z width and three cycles. Centroid peak detection algorithm was used with signal to noise threshold set to 4, relative intensity threshold 2%, minimum intensity threshold 20 [a.u.], peak width 10 m/z and TopHat baseline subtraction. Peak intensity and area under the peak were evaluated and recorded for all peaks between 19248 Da and 20500 Da for H95/C118 mutant and 19285 Da and 20500 Da for C118 mutant respectively.
Percent of labeling was calculated using followed equation:
[formula] Similar results were obtained when peak area instead of peak height was used for calculations, however peak height method produced more reliable data in case of poor quality spectra.

[2] = target: T2, GppNHp loaded KRAS4b(1-169) H95C/C118S mutant (Homo sapiens, UniProt P01116, C118S/H95C); assay: MALDI-TOF percentage labeling of C95, GppNHp-loaded protein; type: binding; conditions: for level of covalent labeling to C95 (percent of labeling), GppNHp, 3 h: 3 h incubation; for level of covalent labeling to C95 (percent of labeling), GppNHp, 6 h: 6 h incubation; for level of covalent labeling to C95 (percent of labeling), GppNHp, 24 h: 24 h incubation
T2 construct: loaded KRAS4b(1-169) H95C/C118S mutant
Description: as §1
150 to 300 μM solution of GDP loaded protein in KRAS buffer was prepared (20 mM HEPES, 150 mM NaCl, 1 mM MgCl2, 0.05 mM TCEP, pH 7.3). To this was added vigorously 1500×molar excess of 1 M ammonium sulfate in KRAS buffer, and the combination mixed gently by inverting tube. Next was prepared 250 mM solution of GppNHp (150 molar excess of GppNHp to protein; keep it on ice). To the protein was pipetted 10% of prepared GppNHp solution, then suspension of alkaline phosphatase from calf intestine on agarose was added (Sigma-Aldrich, P0726) to have 2 units of enzyme per each mg of protein. The reaction mixture was incubated at room temperature, rotating end-over for 1 h 30 min. The alkaline phosphatase was removed on agarose beads by filtering solution to a new vial using Millex-GP syringe filter. Remaining solution of GppNHp was added and incubated for additional 45 min. At the end of the exchange the protein was filtered again, placed on ice, and purified on NGC medium-pressure chromatography system (Bio-Rad). Five in-lane connected desalting columns (5×GE Healthcare HiTrap Desalting columns 5 ml, 17-1408-01) were used with isocratic elution of KRAS buffer at 4 ml/min. The protein elution was monitored at 280 nm. The concentration of final protein was evaluated by NanoDrop 2000 spectrophotometer (Thermo Fisher) using molar attenuation coefficient ε=19685 l·mol^−1·cm^−1. The quality of the protein was confirmed by MALDI and the exchange rate was assessed by HPLC based assay.
as §2, §3, §4, §5, §6
MALDI-TOF measurements were performed on Bruker Daltonics ultraflex III TOF-TOF mass spectrometer using linear mode and mass range from 5 to 45 kDa. […]

| level of covalent labeling to C95 (percent of labeling), GDP, 3 h [1] [%] | level of covalent labeling to C95 (percent of labeling), GDP, 6 h [1] [%] | level of covalent labeling to C95 (percent of labeling), GDP, 24 h [1] [%] | level of covalent labeling to C95 (percent of labeling), GppNHp, 3 h [2] [%] | level of covalent labeling to C95 (percent of labeling), GppNHp, 6 h [2] [%] | level of covalent labeling to C95 (percent of labeling), GppNHp, 24 h [2] [%] | SMILES |
| --- | --- | --- | --- | --- | --- | --- |
| 0 | 0 | 0 | 0 | 0 | 0 | CC(C)C[C@H](NC(=O)c1cn(C)c2ccc(Br)cc12)C(=O)[C@@]1(C)CO1 |
| 19 | 42 | 91 | 3 | 4 | 22 | Cn1cc(C(=O)NCc2cn(C[C@@H]3CO3)nn2)c2cc(Br)ccc21 |
| 0 | 0 | 0 | 0 | 0 | 0 | Cc1ccc(S(=O)(=O)c2cn(CC3OC3(C)C)nn2)cc1 (stereo not drawn) |
| 3 | 10 | 49 | 0 | 2 | 10 | Cn1nc(C(=O)NCc2cn(C[C@H]3CO3)nn2)c2cc(Br)ccc21 |
| 0 | 0 | 0 | 0 | 0 | 0 | Cn1nc(C(=O)NCc2cn(C[C@H]3CO3)nn2)c2ccccc21 |
| 87 | 91 | 89 | 76 | 81 | 78 | COc1ccc(Cl)cc1C(=O)N[C@H]1COC1=O |
| 5 | 12 | 45 | 2 | 3 | 14 | CC(=O)Oc1ccccc1C(=O)NCc1cn(C[C@@H]2CO2)nn1 |
| 0 | 0 | 0 | 0 | 0 | 0 | COc1ccc(Cl)cc1C(=O)N1CCCC(C(=O)N[C@@H](CC(C)C)C(=O)[C@@]2(C)CO2)C1 (stereo partly drawn) |
| 36 | 73 | 98 | 0 | 2 | 17 | CC(C)Cc1ccc(C(C)C(=O)NCc2cn(C[C@@H]3CO3)nn2)cc1 (stereo partly drawn) |
| 7 | 18 | 72 | 2 | 4 | 25 | O=C(NCc1cn(C[C@@H]2CO2)nn1)c1c[nH]c2ccccc12 |
| 3 | 9 | 38 | 0 | 3 | 13 | Cn1nc(C(=O)NCc2cn(C[C@@H]3CO3)nn2)c2ccccc21 [drawing 514] |
| 0 | 5 | 31 | 0 | 2 | 11 | O=C(NCc1cn(C[C@H]2CO2)nn1)c1c[nH]c2ccccc12 |
| 23 | 52 | 96 | 0 | 4 | 19 | Cn1nc(C(=O)NCc2cn(C[C@@H]3CO3)nn2)c2cc(Br)ccc21 |
| 0 | 0 | 0 | 0 | 0 | 0 | CC(C)C[C@H](NC(=O)c1cn(C)c2ccccc12)C(=O)[C@@]1(C)CO1 |
